Measurements from US9090647B2, “Crystalline forms of rebaudioside B” (CARGILL, INCORPORATED, priority 2010, dated 2015).
Values after ≈ are worked out from the molar mass of the structure shown. Where two headings read alike, the source gives them in different places.

Assay: Solubility of rebaudioside B crystal polymorphs by incremental addition to solvent in a temperature controlled stirred vessel, visual determination
Type: physicochemical
Conditions: for solubility: 25 °C, thermodynamic from solid; for solubility / solubility in ethanol / solubility in water: 25° C.
Description: The solubility of each of the four crystal polymorphs of rebaudioside B was determined in the following manner. Experiments were conducted using a known volume of solvent in a temperature controlled stirred vessel. The amount of solvent used was either 1 mL or 2 mL. Rebaudioside B was added to the solvent in the temperature controlled stirred vessel in 0.5 mg increments and held to visually determine if it dissolved. If the first 0.5 mg increment dissolved, another 0.5 mg increment was added and again held to visually determine if it dissolved. […] Each incremental addition of rebaudioside B was allowed a maximum of 1 hour to dissolve (if dissolution took place more quickly it was not necessary to wait the full 1 hour).

SMILES: C=C1C[C@@]23CC[C@H]4[C@@](C)(CCC[C@@]4(C)C(=O)O)[C@@H]2CC[C@]1(O[C@@H]1O[C@H](CO)[C@@H](O)[C@H](O[C@@H]2O[C@H](CO)[C@@H](O)[C@H](O)[C@H]2O)[C@H]1O[C@@H]1O[C@H](CO)[C@@H](O)[C@H](O)[C@H]1O)C3 [Form 1, rebaudioside B]
- solubility (95% ethanol/5% water solution, organic solvent or mixture, 95% ethanol/5% water solution, read-out: solubility in a 95% ethanol/5% water solution): ~28 mg/mL (≈ 34.8 mM)
- solubility in ethanol (in words): moderate
- solubility in ethanol: about 8.3 mg/mL
- solubility in an ethanol/water mixture (in words) (ethanol/water mixture): high
- solubility in water (in words) (water): low
- solubility (water, water, water, read-out: solubility in water): < 0.5 mg/mL

SMILES: C=C1C[C@@]23CC[C@H]4[C@@](C)(CCC[C@@]4(C)C(=O)O)[C@@H]2CC[C@]1(O[C@@H]1O[C@H](CO)[C@@H](O)[C@H](O[C@@H]2O[C@H](CO)[C@@H](O)[C@H](O)[C@H]2O)[C@H]1O[C@@H]1O[C@H](CO)[C@@H](O)[C@H](O)[C@H]1O)C3 [Form 2, rebaudioside B]
- solubility in ethanol (in words): low
- solubility in ethanol: about 2.7 mg/mL
- solubility in water (in words) (water): low
- solubility in water (water): less than 0.5 mg/mL

SMILES: C=C1C[C@@]23CC[C@H]4[C@@](C)(CCC[C@@]4(C)C(=O)O)[C@@H]2CC[C@]1(O[C@@H]1O[C@H](CO)[C@@H](O)[C@H](O[C@@H]2O[C@H](CO)[C@@H](O)[C@H](O)[C@H]2O)[C@H]1O[C@@H]1O[C@H](CO)[C@@H](O)[C@H](O)[C@H]1O)C3 [Form 3, rebaudioside B]
- solubility in ethanol (in words): moderate
- solubility in ethanol: about 10 mg/mL
- solubility in water (in words) (water): low
- solubility in water (water): less than 0.5 mg/mL
